Experimental data taken from US7671057B2, “Therapeutic agent for type II diabetes comprising protease-inhibiting compound” (Ono Pharmaceutical Co., Ltd., priority 2004, dated 2010).
Entries after “also recorded” stand apart in the source; their conditions may differ.

Legend:
[1] = tested on: pancreatic Langerhans' islets; test: Histopathological analysis of the pancreas (Example 3); format: in vivo, mouse; conditions: Day 28
Description: Histopathological analysis of the pancreas (pathological analysis of the pancreatic Langerhans' islets (α-, β- and δ-cells) was carried out by embedding the tissue in paraffin, followed by thin slicing and respective staining through the Grimelius staining, Gomori's aldehyde-fuchsin staining and Hellman-Hellerstroem' staining.

[2] = target: leukotriene B4 (LTB4) receptor (Homo sapiens, UniProt Q15722); conditions: cited from earlier work
Sequence of leukotriene B4 (LTB4) receptor (Q15722 whole entry): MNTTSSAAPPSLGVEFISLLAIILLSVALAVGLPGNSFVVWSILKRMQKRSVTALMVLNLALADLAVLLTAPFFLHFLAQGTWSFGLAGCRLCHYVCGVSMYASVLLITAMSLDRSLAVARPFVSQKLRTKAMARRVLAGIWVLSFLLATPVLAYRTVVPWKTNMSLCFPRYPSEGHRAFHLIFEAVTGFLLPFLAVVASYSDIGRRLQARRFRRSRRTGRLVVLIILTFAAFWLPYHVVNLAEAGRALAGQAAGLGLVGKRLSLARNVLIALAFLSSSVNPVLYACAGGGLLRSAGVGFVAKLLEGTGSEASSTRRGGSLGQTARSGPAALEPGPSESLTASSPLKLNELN

[3] = tested on: KK-A^y/Ta Jcl mice; test: Weights of pancreas, liver and kidney at autopsy (Example 3); format: in vivo, mouse
Description: (§1) On Day 28 of administration of each compound in the form of an admixture with a food, furthermore, each animal after blood had been drawn from the tail vein was treated through individual forced oral administration of the Test Compound 2 in the form of the solutions individually consisting of 0.2, 0.6, 2.0 and 6.0 mg/mL-0.5% CMC suspension in each 5 mL/kg portion, as well as the Control Compound 1 in the form of the solutions individually consisting of 2.0 and 6 mg/mL-0.5% CMC suspension in each 5 ml/kg portion, followed by blood drawing 30 min. later and autopsy to thereby measure the weights of the pancreas, liver and kidney, whereby the control group was treated through administration of the 0.5% CMC suspension in the same portion.

[4] = tested on: KK-A^y/Ta Jcl mice; test: Blood-sugar level at satiety, dose-ranging food admixture up to Day 28 (Example 3); format: in vivo, mouse; conditions: for Blood-sugar level: end of the test (Day 28)
Description: KK-A^y/Ta Jcl Mice (male, 6-weeks aged, the number of cases; 8 animals) were treated through individual administration, in the form of an admixture with a food, of the Test Compound 2 (N-allyl-N-{(2E)-3-[4-({4-[amino(imino)methyl]phenoxy}-carbonyl)phenyl]-2-methyl-2-propenoyl}glycine/dimethanesulfonate) of the present invention at the daily doses of 0.56 mg, 1.68 mg, 5.6 mg and 16.8 mg/100 g-food, respectively, and the Control Compound 1 (5-{4-[2-(5-ethylpyridine-2-yl)-ethoxy]benzyl}-1,3-thiazolidine-2,4-dion; pioglitazone) at the daily doses of 5.6 mg and 16.8 mg/100 g-food, respectively, […], whereby the control group was fed with an ordinary food alone.
Blood was drawn from the tail vein individually on the day preceding to administration of each compound in the form of an admixture with a food, and on Days 6, 11, 16, 21 and 28 of administration.
(§2) The blood samples taken from the tail vein on the respective specified days after the administration were subjected to measurement of the blood-sugar level in accordance with the method as described in Example 1, while the plasma glucagon level after the forced oral administration performed on Days 28 was measured in accordance with the ELISA method as described in Example 1. Also, the glycosylated hemoglobin (HbA1c) and GLP-1 levels were determined in accordance with the latex coagulation method and the ELISA method (YK160, GLP-1 EIA Kit, produced by K.K. Yanaihara Kenkyu-sho of Japan), respectively, while the TG level was measured in accordance with the method as described in Example 1. The total pancreatic insulin content after oral administration of each compound was determined by adding 75% ethanol to the isolated pancreas as frozen, followed by homogenization, and collecting the insulin fraction through Sep-Pak (C18; WATER) treatment of the supernatant liquid produced by centrifugation, followed by determination with the ELIZA method.

[5] = Body weight, administration as admixture with food (Example 2); format: in vivo, mouse
Description: (§3) KK-A^y/Ta Jcl Mice (male, 6- to 7-weeks aged, the number of cases; 8 animals) were treated through individual administration, in the form of an admixture with a food, of the Test Compound 2 (N-allyl-N-{(2E)-3-[4-({4-[amino(imino)methyl]phenoxy}-carbonyl)phenyl]-2-methyl-2-propenoyl}glycine/dimethane-sulfonate) of the present invention and the Control Compound 1 (5-(4-[2-(5-ethylpyridine-2-yl)ethoxy]benzyl)-1,3-thiazolidine-2,4-dione; pioglitazone) at the daily dose of 16.8 mg/100 g-food for 7 consecutive days, whereby the control group was fed with an ordinary food alone.
(§4) Blood was drawn from the tail vein individually on the day (Day 1) preceding to administration of the Test Compound in the form of an admixture with a food, and on Days 2, 5, 7 and 14 of administration, and the blood samples were subjected to measurement of the blood-sugar level in accordance with the same procedure as described in Example 1, while, at the same time, the animals were weighed.

[6] = tested on: KK-A^y/Ta Jcl mice; test: Total pancreatic insulin content (Example 3); format: in vivo, mouse
Description: as §2

[7] = tested on: KK-A^y/Ta Jcl mice; test: Plasma GLP-1, glucagon, blood-sugar, HbA1c and TG 30 min after forced oral administration on Day 28 (Example 3); format: in vivo, mouse
Description: as §1, §2

[8] = tested on: KK-A^y/Ta Jcl mice; test: Blood-sugar level, administration as admixture with food (Example 2); format: in vivo, mouse
Description: as §3, §4

[9] = autopsy Day 28, Dose 0.56 (g/100 g-food)
[10] = autopsy Day 28, Dose 1.68 (g/100 g-food)
[11] = autopsy Day 28, Dose 16.8 (g/100 g-food)
[12] = day preceding administration (baseline), 16.8 mg/100 g-food group

Compound: C=CCN(CC(=O)O)C(=O)/C(C)=C/c1ccc(C(=O)Oc2ccc(C(=N)N)cc2)cc1 [Test Compound 2, N-allyl-N-{(2E)-3-[4-({4-[amino(imino)methyl]phenoxy}-carbonyl)phenyl]-2-methyl-2-propenoyl}glycine/dimethane-sulfonate]
- Number of pancreatic B-cells (postmortem findings) [1]: increase the number of pancreatic B-cells
- Size of Langerhans' cells of the pancreatic islets (postmortem findings) [1]: enlarge the Langerhans' cells of the pancreatic islets
- LTB4 receptor antagonistic action [2]: LTB4 antagonistic action
- Weight of the kidney (in words) ([3]; autopsy Day 28): suppressed from rising
- Weight of the liver (in words) ([3]; autopsy Day 28): suppressed from rising
- Weight of the pancreas (in words) ([3]; autopsy Day 28): increased
- Weight Kidney [3, 9]: 0.47 ± 0.01 g
- Weight Liver [3, 9]: 2.01 ± 0.08 g
- Weight Pancreas [3, 9]: 0.342 ± 0.01 g
- Weight Kidney [3, 10]: 0.49 ± 0.01 g
- Weight Liver [3, 10]: 2.08 ± 0.07 g
- Weight Pancreas [3, 10]: 0.41 ± 0.02 g
- Weight Kidney [3, 11]: 0.41 ± 0.01 g
- Weight Liver [3, 11]: 1.52 ± 0.06 g
- Weight Pancreas [3, 11]: 0.45 ± 0.03 g
- Time-course changes in blood-sugar level at satiety vs Control Group (in words, FIG. 1) ([4]; 5.6 mg/100 g group): significant drop in the blood-sugar level at the end of the test
- Time-course changes in blood-sugar level at satiety vs Control Group (in words, FIG. 1) ([4]; 16.8 mg/100 g group): significant continued drops in the blood-sugar level
- Blood-sugar level ([4]; Dose 0.56 (g/100 g-food)): 524.6 ± 47.3 mg/dL
- Blood-sugar level ([4]; Dose 1.68 (g/100 g-food)): 620.9 ± 79.6 mg/dL
- Blood-sugar level ([4]; Dose 5.6 (g/100 g-food)): 369.7 ± 39.6 mg/dL
- Blood-sugar level ([4]; Dose 16.8 (g/100 g-food)): 251.2 ± 34.7 mg/dL
- Body weight Day 2 ([5]; 16.8 mg/100 g-food admixture): 29.8 ± 0.7 g
- Body weight Day 5 ([5]; 16.8 mg/100 g-food admixture): 30.6 ± 0.8 g
- Body weight Day 7 ([5]; 16.8 mg/100 g-food admixture): 32.4 ± 1.0 g
- Body weight Day 14 ([5]; 16.8 mg/100 g-food admixture): 34.6 ± 1.3 g
- Body weight Day 1 [5, 12]: 30.6 ± 0.6 g
- Effect on body weight (in words) ([5]; food admixture 16.8 mg/100 g-food, time course): not observed to produce any difference from the control group; also recorded: did not show any body-weight elevating actions
- Total pancreatic insulin content (in words) ([6]; Day 28): increase in the total pancreatic insulin content
- Total pancreatic insulin content ([6]; Day 28, Dose 1.68 (g/100 g-food)): 9.40 ± 2.24 µg
- Total pancreatic insulin content ([6]; Day 28, Dose 5.6 (g/100 g-food)): 17.11 ± 2.76 µg
- Change in HbA1C level (in words) [7]: decreased
- Change in TG level (in words) [7]: decreased
- Change in blood-sugar level (in words) [7]: decreased
- Change in plasma glucagon level (in words) [7]: drops in the plasma glucagon level
- Change in plasma GLP-1 level (in words) ([7]; 30 min after forced oral administration): plasma GLP-1 increasing effect
- Blood-sugar level Day 2 ([8]; 16.8 mg/100 g-food admixture): 286.5 ± 58.3 mg/dL
- Blood-sugar level Day 5 ([8]; 16.8 mg/100 g-food admixture): 314.8 ± 14.4 mg/dL
- Blood-sugar level Day 7 ([8]; 16.8 mg/100 g-food admixture): 291.0 ± 5.1 mg/dL
- Blood-sugar level Day 14 ([8]; 16.8 mg/100 g-food admixture): 248.0 ± 11.5 mg/dL
- Blood-sugar level Day 1 [8, 12]: 300.0 ± 18.9 mg/dL
- Blood-sugar lowering action (in words) ([8]; food admixture 16.8 mg/100 g-food, as from Day 5 afterwards): significant blood-sugar lowering action; also recorded: more potent blood-sugar lowering action
